Earlier results as cited in US6896899B2, “Pharmaceutical preparations of glutathione and methods of administration thereof” (Antioxidant Pharmaceuticals Corp., priority 1996, dated 2005).

Tests used:
Mouse = conditions: GSH pretreatment
HIV = conditions: acutely infected cells, chronically infected cells, normal peripheral blood mononuclear cells
[1] = human, in vivo, iv
blood pressure = conditions: 3,699 mg dose, normal subjects
hematologic parameters = conditions: 1,200 mg/day intravenously
[2] = human, in vivo, po, 15 mg/kg

N[C@@H](CCC(=O)N[C@@H](CS)C(=O)NCC(=O)O)C(=O)O [GSH, gamma-glutamyl-cysteinyl-glycine]
protection against morphine-induced lethality (Mouse): protects against morphine-induced lethality
cytokine-stimulated HIV expression and replication (HIV): can inhibit
volume of distribution of exogenous glutathione [1]: 176-107 Ml/Kg
tumor growth and survival (hepatocellular carcinoma; 5 g oral GSH per day): Two of the female patients survived 1 year and exhibited regression or stagnation of their tumor growth
side-effects (hepatocellular carcinoma; human, in vivo, po): Two patients withdrew shortly after receiving GSH due to intolerable side-effects
blood pressure (blood pressure): significant decrease
hematologic parameters (hematocrit, hemoglobin, blood count) compared to baseline (hematologic parameters): significantly increase
plasma glutathione levels over the basal concentration [2]: 1.5-10 fold

CC(=O)N[C@@H](CS)C(=O)O [NAC, N-acetyl cysteine]
cytokine-stimulated HIV expression and replication (HIV): can inhibit
